# In patent US5219884A, “Immunosuppressant” (Taito Co., Ltd., priority 1990, dated 1993):
# Read-outs that look alike come from different tables or passages of the source.
# Tests used:
# [1] = tested on: mouse allogenic mixed lymphocyte reaction (BALB/c responder, C57BL/6 stimulator spleen cells); assay: mouse allogenic mixed lymphocyte reaction (MLR), blastogenesis by 3H-thymidine uptake; type: cell-based; conditions: for inhibition at 0.001 µg/mL / inhibition at 0.01 µg/mL / inhibition at 0.1 µg/mL: Mus musculus, Lymphocyte, read-out: Suppression
# [2] = cytotoxicity to mouse L929 cells; type: cell-based; conditions: mouse, l929 cells, read-out: Suppression
# [3] = tested on: mouse L929 cells; assay: cytotoxicity to mouse L929 cells; type: cell-based; conditions: 550 nm
# [4] = in vitro; type: cell-based, human; conditions: human, read-out: Suppression
# [5] = tested on: CCRF-CEM; assay: in vitro; type: cell-based, human
# [6] = tested on: HL60; assay: in vitro; type: cell-based, human
# [7] = tested on: K562; assay: in vitro; type: cell-based, human
# [8] = tested on: KB; assay: in vitro; type: cell-based, human
# [9] = tested on: PC-14; assay: in vitro; type: cell-based, human
# [10] = tested on: U937; assay: in vitro; type: cell-based, human
# [11] = cytotoxicity to tumor cell line MOLT4; type: cell-based, human; conditions: human, molt4 cells, read-out: Suppression
# Summary of the method: (§1)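 Human tumour lines at 2×10^5 cells/ml in RPMI1640 with 20% FCS were mixed 1:1 with test solution and cultured 72 h at 37° C, 5% CO2. MTT colorimetry at 550 nm; percent suppression served as the cytotoxicity index.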
# [12] = tested on: MOLT4; assay: cytotoxicity to tumor cell line MOLT4; type: cell-based, human
# Summary of the method: as §1
structure (smiles),measurement,setting,value
CCCCCCC(O)CCCCCCCCCC(O)C(O)C(N)(CO)C(=O)O (stereo not drawn) [Example 9],3H-thymidine uptake,[1]; 0.001 μg/ml,25682 cpm
same,3H-thymidine uptake,[1]; 0.01 μg/ml,23668 cpm
same,3H-thymidine uptake,[1]; 0.1 μg/ml,3167 cpm
same,inhibition at 0.001 µg/mL,[1]; 0.001 μg/ml,7.5%
same,inhibition at 0.01 µg/mL,[1]; 0.01 μg/ml,17.1%
same,inhibition at 0.1 µg/mL,[1]; 0.1 μg/ml,100%
same,cytotoxicity at 48 h,[2]; 1 μg/ml,0%
same,cytotoxicity at 48 h,[2]; 10 μg/ml,0%
same,cytotoxicity at 48 h,[2]; 100 μg/ml,1%
same,Absorbancy,[3]; 1 μg/ml,0.749
same,Absorbancy,[3]; 10 μg/ml,0.747
same,Absorbancy,[3]; 100 μg/ml,0.567
same,cytotoxicity at 72 h,"[4]; ccrf-cem cells, 0.1 μg/ml",0%
same,cytotoxicity at 72 h,"[4]; ccrf-cem cells, 1.0 μg/ml",0%
same,cytotoxicity at 72 h,"[4]; ccrf-cem cells, 10.0 μg/ml",1.7%
same,cytotoxicity at 72 h,"[4]; hl60 cells, 0.1 μg/ml",13.8%
same,cytotoxicity at 72 h,"[4]; hl60 cells, 1.0 μg/ml",16.7%
same,cytotoxicity at 72 h,"[4]; hl60 cells, 10.0 μg/ml",20.9%
same,cytotoxicity at 72 h,"[4]; k562 cells, 0.1 μg/ml",1.8%
same,cytotoxicity at 72 h,"[4]; k562 cells, 1.0 μg/ml",5.5%
same,cytotoxicity at 72 h,"[4]; k562 cells, 10.0 μg/ml",17.7%
same,cytotoxicity at 72 h,"[4]; kb cells, 0.1 μg/ml",0%
same,cytotoxicity at 72 h,"[4]; kb cells, 1.0 μg/ml",0%
same,cytotoxicity at 72 h,"[4]; kb cells, 10.0 μg/ml",4.7%
same,cytotoxicity at 72 h,"[4]; pc-14 cells, 0.1 μg/ml",14.8%
same,cytotoxicity at 72 h,"[4]; pc-14 cells, 1.0 μg/ml",7%
same,cytotoxicity at 72 h,"[4]; pc-14 cells, 10.0 μg/ml",21.1%
same,cytotoxicity at 72 h,"[4]; u937 cells, 0.1 μg/ml",0%
same,cytotoxicity at 72 h,"[4]; u937 cells, 1.0 μg/ml",0%
same,cytotoxicity at 72 h,"[4]; u937 cells, 10.0 μg/ml",0%
same,Absorbancy,[5]; 0.1 μg/ml,0.702
same,Absorbancy,[5]; 1.0 μg/ml,0.696
same,Absorbancy,[5]; 10.0 μg/ml,0.680
same,Absorbancy,[6]; 0.1 μg/ml,0.450
same,Absorbancy,[6]; 1.0 μg/ml,0.435
same,Absorbancy,[6]; 10.0 μg/ml,0.413
same,Absorbancy,[7]; 0.1 μg/ml,0.378
same,Absorbancy,[7]; 1.0 μg/ml,0.364
same,Absorbancy,[7]; 10.0 μg/ml,0.317
same,Absorbancy,[8]; 0.1 μg/ml,0.778
same,Absorbancy,[8]; 1.0 μg/ml,0.762
same,Absorbancy,[8]; 10.0 μg/ml,0.696
same,Absorbancy,[9]; 0.1 μg/ml,0.404
same,Absorbancy,[9]; 1.0 μg/ml,0.441
same,Absorbancy,[9]; 10.0 μg/ml,0.374
same,Absorbancy,[10]; 0.1 μg/ml,0.640
same,Absorbancy,[10]; 1.0 μg/ml,0.592
same,Absorbancy,[10]; 10.0 μg/ml,0.584
same,cytotoxicity at 72 h,[11]; 0.1 μg/ml,23.4%
same,cytotoxicity at 72 h,[11]; 1.0 μg/ml,9%
same,cytotoxicity at 72 h,[11]; 10.0 μg/ml,2.1%
same,Absorbancy,[12]; 0.1 μg/ml,0.111
same,Absorbancy,[12]; 1.0 μg/ml,0.132
same,Absorbancy,[12]; 10.0 μg/ml,0.142
CCCCCCC(O)CCCCCCCCCC1OC(=O)C(N)(CO)C1O (stereo not drawn) [Example 10],3H-thymidine uptake,[1]; 0.001 μg/ml,19595 cpm
same,3H-thymidine uptake,[1]; 0.01 μg/ml,19019 cpm
same,3H-thymidine uptake,[1]; 0.1 μg/ml,2405 cpm
same,inhibition at 0.001 µg/mL,[1]; 0.001 μg/ml,36.4%
same,inhibition at 0.01 µg/mL,[1]; 0.01 μg/ml,39.1%
same,inhibition at 0.1 µg/mL,[1]; 0.1 μg/ml,100%
same,cytotoxicity at 48 h,[2]; 1 μg/ml,0%
same,cytotoxicity at 48 h,[2]; 10 μg/ml,0%
same,cytotoxicity at 48 h,[2]; 100 μg/ml,96%
same,Absorbancy,[3]; 1 μg/ml,0.722
same,Absorbancy,[3]; 10 μg/ml,0.661
same,Absorbancy,[3]; 100 μg/ml,0.023
same,cytotoxicity at 72 h,"[4]; ccrf-cem cells, 0.1 μg/ml",2.9%
same,cytotoxicity at 72 h,"[4]; ccrf-cem cells, 1.0 μg/ml",6.5%
same,cytotoxicity at 72 h,"[4]; ccrf-cem cells, 10.0 μg/ml",6.8%
same,cytotoxicity at 72 h,"[4]; hl60 cells, 0.1 μg/ml",14.4%
same,cytotoxicity at 72 h,"[4]; hl60 cells, 1.0 μg/ml",20.5%
same,cytotoxicity at 72 h,"[4]; hl60 cells, 10.0 μg/ml",22.3%
same,cytotoxicity at 72 h,"[4]; k562 cells, 0.1 μg/ml",0%
same,cytotoxicity at 72 h,"[4]; k562 cells, 1.0 μg/ml",10.9%
same,cytotoxicity at 72 h,"[4]; k562 cells, 10.0 μg/ml",19.2%
same,cytotoxicity at 72 h,"[4]; kb cells, 0.1 μg/ml",0%
same,cytotoxicity at 72 h,"[4]; kb cells, 1.0 μg/ml",0%
same,cytotoxicity at 72 h,"[4]; kb cells, 10.0 μg/ml",16.4%
same,cytotoxicity at 72 h,"[4]; pc-14 cells, 0.1 μg/ml",8.6%
same,cytotoxicity at 72 h,"[4]; pc-14 cells, 1.0 μg/ml",13.3%
same,cytotoxicity at 72 h,"[4]; pc-14 cells, 10.0 μg/ml",33.1%
same,cytotoxicity at 72 h,"[4]; u937 cells, 0.1 μg/ml",6.5%
same,cytotoxicity at 72 h,"[4]; u937 cells, 1.0 μg/ml",7.2%
same,cytotoxicity at 72 h,"[4]; u937 cells, 10.0 μg/ml",11.3%
same,Absorbancy,[5]; 0.1 μg/ml,0.672
same,Absorbancy,[5]; 1.0 μg/ml,0.647
same,Absorbancy,[5]; 10.0 μg/ml,0.645
same,Absorbancy,[6]; 0.1 μg/ml,0.447
same,Absorbancy,[6]; 1.0 μg/ml,0.415
same,Absorbancy,[6]; 10.0 μg/ml,0.406
same,Absorbancy,[7]; 0.1 μg/ml,0.390
same,Absorbancy,[7]; 1.0 μg/ml,0.343
same,Absorbancy,[7]; 10.0 μg/ml,0.311
same,Absorbancy,[8]; 0.1 μg/ml,0.743
same,Absorbancy,[8]; 1.0 μg/ml,0.735
same,Absorbancy,[8]; 10.0 μg/ml,0.610
same,Absorbancy,[9]; 0.1 μg/ml,0.433
same,Absorbancy,[9]; 1.0 μg/ml,0.411
same,Absorbancy,[9]; 10.0 μg/ml,0.317
same,Absorbancy,[10]; 0.1 μg/ml,0.545
same,Absorbancy,[10]; 1.0 μg/ml,0.541
same,Absorbancy,[10]; 10.0 μg/ml,0.517
same,cytotoxicity at 72 h,[11]; 0.1 μg/ml,0%
same,cytotoxicity at 72 h,[11]; 1.0 μg/ml,0%
same,cytotoxicity at 72 h,[11]; 10.0 μg/ml,0%
same,Absorbancy,[12]; 0.1 μg/ml,0.148
same,Absorbancy,[12]; 1.0 μg/ml,0.159
same,Absorbancy,[12]; 10.0 μg/ml,0.170
CCCCCCC(=O)CCCCCC/C=C/CC1OC(=O)C(CO)(NC(C)=O)C1O (stereo not drawn) [Example 11],3H-thymidine uptake,[1]; 0.001 μg/ml,32597 cpm
same,3H-thymidine uptake,[1]; 0.01 μg/ml,30777 cpm
same,3H-thymidine uptake,[1]; 0.1 μg/ml,23430 cpm
same,inhibition at 0.001 µg/mL,[1]; 0.001 μg/ml,0%
same,inhibition at 0.01 µg/mL,[1]; 0.01 μg/ml,0%
same,inhibition at 0.1 µg/mL,[1]; 0.1 μg/ml,18.2%
same,cytotoxicity at 48 h,[2]; 1 μg/ml,0%
same,cytotoxicity at 48 h,[2]; 10 μg/ml,0%
same,cytotoxicity at 48 h,[2]; 100 μg/ml,91.8%
same,Absorbancy,[3]; 1 μg/ml,0.710
same,Absorbancy,[3]; 10 μg/ml,0.669
same,Absorbancy,[3]; 100 μg/ml,0.047
same,cytotoxicity at 72 h,"[4]; ccrf-cem cells, 0.1 μg/ml",0%
same,cytotoxicity at 72 h,"[4]; ccrf-cem cells, 1.0 μg/ml",4.2%
same,cytotoxicity at 72 h,"[4]; ccrf-cem cells, 10.0 μg/ml",12.9%
same,cytotoxicity at 72 h,"[4]; hl60 cells, 0.1 μg/ml",9%
same,cytotoxicity at 72 h,"[4]; hl60 cells, 1.0 μg/ml",12.6%
same,cytotoxicity at 72 h,"[4]; hl60 cells, 10.0 μg/ml",27%
same,cytotoxicity at 72 h,"[4]; k562 cells, 0.1 μg/ml",17.7%
same,cytotoxicity at 72 h,"[4]; k562 cells, 1.0 μg/ml",12.5%
same,cytotoxicity at 72 h,"[4]; k562 cells, 10.0 μg/ml",34.5%
same,cytotoxicity at 72 h,"[4]; kb cells, 0.1 μg/ml",7%
same,cytotoxicity at 72 h,"[4]; kb cells, 1.0 μg/ml",5.8%
same,cytotoxicity at 72 h,"[4]; kb cells, 10.0 μg/ml",30.1%
same,cytotoxicity at 72 h,"[4]; pc-14 cells, 0.1 μg/ml",6.5%
same,cytotoxicity at 72 h,"[4]; pc-14 cells, 1.0 μg/ml",12.7%
same,cytotoxicity at 72 h,"[4]; pc-14 cells, 10.0 μg/ml",40%
same,cytotoxicity at 72 h,"[4]; u937 cells, 0.1 μg/ml",0%
same,cytotoxicity at 72 h,"[4]; u937 cells, 1.0 μg/ml",0%
same,cytotoxicity at 72 h,"[4]; u937 cells, 10.0 μg/ml",23%
same,Absorbancy,[5]; 0.1 μg/ml,0.694
same,Absorbancy,[5]; 1.0 μg/ml,0.663
same,Absorbancy,[5]; 10.0 μg/ml,0.603
same,Absorbancy,[6]; 0.1 μg/ml,0.475
same,Absorbancy,[6]; 1.0 μg/ml,0.456
same,Absorbancy,[6]; 10.0 μg/ml,0.381
same,Absorbancy,[7]; 0.1 μg/ml,0.317
same,Absorbancy,[7]; 1.0 μg/ml,0.337
same,Absorbancy,[7]; 10.0 μg/ml,0.257
same,Absorbancy,[8]; 0.1 μg/ml,0.679
same,Absorbancy,[8]; 1.0 μg/ml,0.688
same,Absorbancy,[8]; 10.0 μg/ml,0.510
same,Absorbancy,[9]; 0.1 μg/ml,0.443
same,Absorbancy,[9]; 1.0 μg/ml,0.413
same,Absorbancy,[9]; 10.0 μg/ml,0.284
same,Absorbancy,[10]; 0.1 μg/ml,0.598
same,Absorbancy,[10]; 1.0 μg/ml,0.583
same,Absorbancy,[10]; 10.0 μg/ml,0.449
same,cytotoxicity at 72 h,[11]; 0.1 μg/ml,0%
same,cytotoxicity at 72 h,[11]; 1.0 μg/ml,0%
same,cytotoxicity at 72 h,[11]; 10.0 μg/ml,11.7%
same,Absorbancy,[12]; 0.1 μg/ml,0.182
same,Absorbancy,[12]; 1.0 μg/ml,0.150
same,Absorbancy,[12]; 10.0 μg/ml,0.128
